Earlier results on 2 molecules are cited in patent US20190091195A1, “USE OF DIANHYDROGALACTITOL AND DERIVATIVES THEREOF IN THE TREATMENT OF GLIOBLASTOMA, LUNG CANCER, AND OVARIAN CANCER” (Del Mar Pharmaceuticals, priority 2015, published 2019).

One data set has as its target GSK-3β (Homo sapiens, UniProt P49841). Conditions: cited from earlier work.
The conditions of data set [1]: cited from earlier work.

Each structure is given as a SMILES string.

GSK-3β, sequence (P49841 whole entry, species assumed): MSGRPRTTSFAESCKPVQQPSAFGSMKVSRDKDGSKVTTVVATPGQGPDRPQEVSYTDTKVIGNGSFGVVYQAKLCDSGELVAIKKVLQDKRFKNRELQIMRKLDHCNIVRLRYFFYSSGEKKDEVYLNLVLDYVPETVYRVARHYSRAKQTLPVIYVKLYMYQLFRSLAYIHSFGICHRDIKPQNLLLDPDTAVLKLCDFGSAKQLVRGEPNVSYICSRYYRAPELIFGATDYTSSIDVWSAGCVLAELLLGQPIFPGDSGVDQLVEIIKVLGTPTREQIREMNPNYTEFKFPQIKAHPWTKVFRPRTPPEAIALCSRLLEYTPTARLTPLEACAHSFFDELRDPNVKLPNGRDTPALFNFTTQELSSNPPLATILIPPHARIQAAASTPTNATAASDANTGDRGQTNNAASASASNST

On to `CN1C(=O)/C(=C2/C(=O)Nc3ccccc32)c2ccccc21` [Meisoindigo], for which the “concentration for inhibition of GSK-3β” value at GSK-3β is 5 to 50 nM.

On to `O[C@H]([C@H](O)[C@@H](O)CBr)[C@H](O)CBr` [dibromodulcitol], for which, in data set [1], the “absorption by the oral route” value was “rapid and fairly complete”.
